Test results published in patent US20250002512A1, “NOVEL ANTI-[…] NE[…] AND THERAPEUTIC USES THEREOF” (MARVEL BIOTECHNOLOGY, priority 2021, published 2025).

Tests used:
[1] = system: male CD-1 mice; assay: forced swim test (FST), preclinical model of depression; type: in vivo; conditions: n=8/group, 50 mgs/kg orally once a day for seven days, FST on seventh day; for immobilization time (2-6 minutes): compared with fluoxetine 30 mg/kg, one-way ANOVA, Fisher LSD, FIG. 1; for latency to immobility: compared with vehicle control, FIG. 2
Procedure: The forced swim test (FST) is a widely accepted pre-clinical model to test the anti-depressive effects of molecules (Can A, Dao D T, Arad M, Terrillion C E, Piantadosi S C, Gould T D. The Mouse Forced Swim Test. J Vis Exp. 2012; (59): 3638. doi: 10.3791/3638).
Briefly, male CD-1 mice (approximately 25-35 g, n=8/group) were dosed orally once a day with either vehicle (2% aqueous DMSO, 0.5% carboxymethyl cellulose), compound 1 (50 mgs/kg in vehicle), compound 2 (50 mgs/kg in vehicle) or fluoxetine (aka. Prozac®, 30 mg/kg in vehicle) for seven days. Seven days is a comparatively short time to observe an anti-depressant effect with an orally dosed drug. On the seventh day, animals were tested in the FST and observed for abnormal behaviours (e.g. hallucinating).

[2] = molecular target: brain derived neurotrophic factor (BDNF) receptor TrkB (Homo sapiens, UniProt Q16620); conditions: cited from Shen J et al.; cited from earlier work
brain derived neurotrophic factor (BDNF) receptor TrkB, sequence (Q16620 32-822): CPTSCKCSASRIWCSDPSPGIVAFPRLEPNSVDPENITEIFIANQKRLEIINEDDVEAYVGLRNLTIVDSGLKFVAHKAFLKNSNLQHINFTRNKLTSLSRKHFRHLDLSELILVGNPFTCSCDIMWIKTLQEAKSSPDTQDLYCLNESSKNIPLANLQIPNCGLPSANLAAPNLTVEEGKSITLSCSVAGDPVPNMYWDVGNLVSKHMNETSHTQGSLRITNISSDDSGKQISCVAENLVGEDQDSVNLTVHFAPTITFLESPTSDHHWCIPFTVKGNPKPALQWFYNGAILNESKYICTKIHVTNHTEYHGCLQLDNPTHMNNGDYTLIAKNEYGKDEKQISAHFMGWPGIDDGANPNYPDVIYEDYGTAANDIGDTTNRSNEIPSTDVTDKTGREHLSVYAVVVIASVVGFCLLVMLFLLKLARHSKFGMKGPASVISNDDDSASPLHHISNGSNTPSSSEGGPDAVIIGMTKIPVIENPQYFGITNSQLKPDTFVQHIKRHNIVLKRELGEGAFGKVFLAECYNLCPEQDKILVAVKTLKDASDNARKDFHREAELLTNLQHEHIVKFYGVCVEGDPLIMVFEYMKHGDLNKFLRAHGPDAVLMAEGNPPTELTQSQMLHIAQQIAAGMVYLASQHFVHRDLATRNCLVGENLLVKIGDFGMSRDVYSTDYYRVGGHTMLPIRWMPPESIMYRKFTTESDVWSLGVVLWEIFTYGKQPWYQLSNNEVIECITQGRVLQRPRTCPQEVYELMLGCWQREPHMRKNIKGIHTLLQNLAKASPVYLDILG

| Compound | immobilization time (2-6 minutes) [1] | latency to immobility [1] | activation of BDNF receptor TrkB [2] |
| --- | --- | --- | --- |
| O=C1NCCCC1C(=O)NCCc1c[nH]c2ccc(OP(=O)(O)O)cc12 (centres unmarked) [Compound 1, N-{2-[5-(Dihydroxyphosphoryloxy)-1H-indol-3-yl]ethyl}-2-oxo-3-piperidinecarboxamide] | significantly better than fluoxetine | better than vehicle control |  |
| O=C(CN1CCCC1=O)NCCc1c[nH]c2ccc(OP(=O)(O)O)cc12 [Compound 2, N-{2-[5-(dihydroxyphosphoryloxy)-1H-indol-3-yl]ethyl}(2-oxo-1-pyrrolidinyl) acetamide] | significantly better than fluoxetine | better than vehicle control |  |
| N-[2-(5-hydroxy-1H-indol-3-yl)ethyl]-2-oxopiperidine-3-carboxyamide [HIOC] |  |  | activate |
